From ChEMBL document CHEMBL3217657, “Rapid assembly of potent type II dehydroquinase inhibitors viaClick chemistry” (Medchemcomm, 2010) come the findings set out here.

Test [1] concerns the target T1, 3-dehydroquinate dehydratase (Streptomyces coelicolor (strain ATCC BAA-471 / A3(2) / M145), UniProt P15474).
T1 sequence (P15474 whole entry): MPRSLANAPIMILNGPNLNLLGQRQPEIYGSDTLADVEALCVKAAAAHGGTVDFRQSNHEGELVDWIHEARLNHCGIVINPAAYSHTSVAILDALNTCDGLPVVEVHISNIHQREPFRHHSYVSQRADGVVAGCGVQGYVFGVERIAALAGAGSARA
The test is described as follows: Competitive reversible inhibition of Strepotomyces coelicolor type 2 dehydroquinase expressed in Escherichia coli BL21 (DE3) cells assessed as enone-carboxylate chromophore of 3-dehydroshikimate formation using 3-dehydroquinate as substrate preincubated with enzyme for 3 mins prior to substrate addition by UV spectrophotometric assay.

Test [2] has as its target T2, 3-dehydroquinate dehydratase (Helicobacter pylori (strain ATCC 700392 / 26695) (Campylobacterpylori), UniProt Q48255).
T2 sequence (Q48255 whole entry): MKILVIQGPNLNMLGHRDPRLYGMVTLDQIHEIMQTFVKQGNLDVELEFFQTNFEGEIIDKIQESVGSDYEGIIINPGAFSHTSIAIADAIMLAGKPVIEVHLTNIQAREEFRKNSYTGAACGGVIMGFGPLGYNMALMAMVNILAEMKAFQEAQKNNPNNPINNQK
The test is described as follows: Competitive reversible inhibition of Helicobacter pylori type 2 dehydroquinase expressed in Escherichia coli BL21 (DE3) cells assessed as enone-carboxylate chromophore of 3-dehydroshikimate formation using 3-dehydroquinate as substrate preincubated with enzyme for 3 mins prior to substrate addition by UV spectrophotometric assay.

Test [3] has as its target T3, 3-dehydroquinate dehydratase (Mycobacterium tuberculosis, UniProt P9WPX7).
T3 sequence (P9WPX7 whole entry): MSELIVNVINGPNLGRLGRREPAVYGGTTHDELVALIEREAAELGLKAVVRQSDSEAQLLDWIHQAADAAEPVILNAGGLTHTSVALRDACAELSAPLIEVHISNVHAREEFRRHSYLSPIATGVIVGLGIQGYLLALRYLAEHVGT
In words: Competitive reversible inhibition of Mycobacterium tuberculosis type 2 dehydroquinase expressed in Escherichia coli BL21 (DE3) cells assessed as enone-carboxylate chromophore of 3-dehydroshikimate formation using 3-dehydroquinate as substrate preincubated with enzyme for 3 mins prior to substrate addition by UV spectrophotometric assay.

As for `O=C(O)[C@]1(O)C=C(c2cn(-c3ccccc3)nn2)[C@@H](O)[C@H](O)C1`, the Ki came to 5.7 nM in test [1], 225 nM in test [2] and 39 nM in test [3].
For the compound `O=C(O)[C@]1(O)C=C(c2cn(-c3ccc(F)cc3)nn2)[C@@H](O)[C@H](O)C1`, the Ki in test [1] came out at 29 nM; in test [2] it was 561 nM; in test [3] it was 154 nM.
`O=C(O)[C@]1(O)C=C(c2cn(-c3cccc([N+](=O)[O-])c3)nn2)[C@@H](O)[C@H](O)C1`: the Ki in test [1] is 78 nM; in test [2], 538 nM; in test [3], 230 nM.
Take `O=C(O)c1cccc(-n2cc(C3=C[C@@](O)(C(=O)O)C[C@@H](O)[C@@H]3O)nn2)c1`: the Ki in test [1] was 1720 nM; in test [2], 5780 nM; in test [3] it was 3130 nM.
`O=C(O)[C@]1(O)C=C(c2cn(-c3ccccc3O)nn2)[C@@H](O)[C@H](O)C1`: the Ki in test [1] amounted to 48 nM; in test [2], 157 nM; in test [3], 330 nM.
For the compound `O=C(O)[C@]1(O)C=C(c2cn(-c3cccnc3)nn2)[C@@H](O)[C@H](O)C1`, the Ki in test [1] stood at 5.7 nM; in test [2], 375 nM; in test [3] it was 136 nM.
Take `O=C(O)[C@]1(O)C=C(c2cn(Cc3ccco3)nn2)[C@@H](O)[C@H](O)C1`: the Ki was found to be 217 nM in test [1], 2200 nM in test [2] and 2120 nM in test [3].
In the case of `O=C(O)[C@]1(O)C=C(c2cn(Cc3cccs3)nn2)[C@@H](O)[C@H](O)C1`, the results for the Ki in test [1], in test [2] and in test [3] were 73 nM, 925 nM and 1580 nM, respectively.
